Some results are limits rather than exact numbers.

Drawing on paper PMC5064235, “Structure-Based Design of Novel Tetrahydro-Beta-Carboline Derivatives with a Hydrophilic Side Chain as Potential Phosphodiesterase Inhibitors” (Scientia Pharmaceutica, 2015), this text covers IC50 and melting point for 26 compounds.

In one data set the target is T1, recombinant human PDE5 (Homo sapiens, UniProt O76074).
T1 construct: purchased BPS Biosciences, San Diego, CA, USA
Nature of the data set: In vitro PDE5 inhibitory activity (IMAP FP phosphodiesterase assay). Type of data set: biochemical. Conditions: purified PDE5, 50 nM TAMRA-cGMP, 1.5 h at 30 °C; 10 concentrations, at least two replicates; read-out: PDE5 Inhibition IC50. As for the experimental part: Phosphodiesterase Assay: 5 U/mL of purified PDE5 (BPS Biosciences, San Diego, CA, USA) was added to the wells of black 96-well non-binding plates. Immediately, the protein was treated with the compound or vehicle control and 50 nM TAMRA-cGMP and 50 nM Fluourescein-cAMP (Molecular Devices, Sunnyvale, CA, USA) were added to each assay well. The plates were incubated for 1.5 h at 30 °C. After incubation, the IMAP FP Phosphodiesterase Evaluation Assay (Molecular Devices, Sunnyvale, CA, USA) binding reagent was added to each well and the plates were incubated for an additional 30 min at 30 °C. FP was measured according to manufacturer’s specifications using a Biotech Synergy 4 plate reader. PDE activity was expressed by an IC50 value (50% inhibitory concentration). Data analysis was done through dose-response analysis, which was repeated at least twice to confirm the reproducibility of the IC50 values.
All the synthesized final THβC compounds were tested for their ability to inhibit recombinant human PDE5. Most of the compounds were evaluated in two steps. The first step was the determination of the percentage inhibition at a screening dose of 10 μM performed in triplicate. For compounds displaying a percentage of inhibition >50%, the IC50 was then determined by testing a range of 10 concentrations with at least two replicates per concentration (Table 2).

In turn, `O=C1[C@@H]2Cc3c([nH]c4ccccc34)[C@H](c3ccc(Cl)cc3)N2C(=O)CN1CCCCO` [Compound 6k, (6S,12aS)-6-(4-Chloro-phenyl)-2-(4-hydroxy-butyl)-2,3,6,7,12,12a-hexahydropyrazino[1’,2’:1,6]pyrido[3,4-b]indole-1,4-dione] gave a melting point of 227 to 229 °C. Further, the IC50 on recombinant human PDE5 turned out to be 2.31 µM.
Turning to `NCCCCN1CC(=O)N2[C@H](c3ccc(Cl)cc3)c3[nH]c4ccccc4c3C[C@H]2C1=O` [Compound 6p, (6R,12S)-2-(4-Amino-butyl)-6-(4-chloro-phenyl)-2,3,6,7,12,12a-hexahydro-pyrazino[1’,2’:1,6]pyrido[3,4-b]indole-1,4-dione], on recombinant human PDE5, the IC50 was greater than 10 µM.
For the compound `O=C1[C@H]2Cc3c([nH]c4ccccc34)[C@H](c3ccc(Br)cc3)N2C(=O)CN1CCO` [Compound 7e, (6S,12R)-6-(4-Bromo-phenyl)-2-(2-hydroxy-ethyl)-2,3,6,7,12,12a-hexahydro-pyrazino[1’,2’:1,6]pyrido[3,4-b]indole-1,4-dione], the IC50 on recombinant human PDE5 is greater than 10 µM.
For the compound `NCCN1CC(=O)N2[C@@H](c3ccc(Cl)cc3)c3[nH]c4ccccc4c3C[C@@H]2C1=O` [Compound 6f, (6S,12aR)-2-(2-Amino-ethyl)-6-(4-chloro-phenyl)-2,3,6,7,12,12a-hexahydro-pyrazino[1’,2’:1,6]pyrido[3,4-b]indole-1,4-dione], the melting point lay in the range of 200 to 204 °C. At recombinant human PDE5, the IC50 is greater than 10 µM.
As to `O=C1[C@@H]2Cc3c([nH]c4ccccc34)[C@@H](c3ccc(Br)cc3)N2C(=O)CN1CCO` [Compound 7m, (6R,12S)-6-(4-Bromo-phenyl)-2-(2-hydroxy-ethyl)-2,3,6,7,12,12a-hexahydro-pyrazino[1’,2’:1,6]pyrido[3,4-b]indole-1,4-dione], the IC50 at recombinant human PDE5 stood at 0.6 µM.
The compound `NCCN1CC(=O)N2[C@H](c3ccc(Cl)cc3)c3[nH]c4ccccc4c3C[C@@H]2C1=O` [Compound 6b, (6R,12aR)-2-(2-Amino-ethyl)-6-(4-chloro-phenyl)-2,3,6,7,12,12a-hexahydro-pyrazino[1’,2’:1,6]pyrido[3,4-b]indole-1,4-dione] came in with a melting point of 231 to 234 °C. Further, on recombinant human PDE5, the IC50 turned out to be 3.6 µM.
The like results for `NCCN1CC(=O)N2[C@@H](c3ccc(Cl)cc3)c3[nH]c4ccccc4c3C[C@H]2C1=O` [Compound 6j, (6S,12aS)-2-(2-Amino-ethyl)-6-(4-chloro-phenyl)-2,3,6,7,12,12a-hexahydro-pyrazino[1’,2’:1,6]pyrido[3,4-b]indole-1,4-dione] were, in that order, 231 to 233 °C and greater than 10 µM.
Take `NCCCCN1CC(=O)N2[C@H](c3ccc(Br)cc3)c3[nH]c4ccccc4c3C[C@@H]2C1=O` [Compound 7d, (6R,12R)-2-(4-Amino-butyl)-6-(4-bromo-phenyl)-2,3,6,7,12,12a-hexahydro-pyrazino[1’,2’:1,6]pyrido[3,4-b]indole-1,4-dione]: the IC50 at recombinant human PDE5 amounted to 2.7 µM.
On the same count and under the same terms, in the case of `NCCN1CC(=O)N2[C@@H](c3ccc(Br)cc3)c3[nH]c4ccccc4c3C[C@H]2C1=O` [Compound 7j, (6S,12S)-2-(2-Amino-ethyl)-6-(4-bromo-phenyl)-2,3,6,7,12,12a-hexahydro-pyrazino[1’,2’:1,6]pyrido[3,4-b]indole-1,4-dione] it was greater than 10 µM; in that of `O=C1[C@@H]2Cc3c([nH]c4ccccc34)[C@H](c3ccc(Br)cc3)N2C(=O)CN1CCCCO` [Compound 7k, (6S,12S)-6-(4-Bromo-phenyl)-2-(4-hydroxy-butyl)-2,3,6,7,12,12a-hexahydropyrazino[1’,2’:1,6]pyrido[3,4-b]indole-1,4-dione], greater than 10 µM.
On the same count and under the same terms, in the case of `O=C1[C@@H]2Cc3c([nH]c4ccccc34)[C@@H](c3ccc(Br)cc3)N2C(=O)CN1CCCCO` [Compound 7o, (6R,12S)-6-(4-Bromo-phenyl)-2-(4-hydroxy-butyl)-2,3,6,7,12,12a-hexahydropyrazino[1’,2’:1,6]pyrido[3,4-b]indole-1,4-dione] it was 0.82 µM.
Turning to `NCCCCN1CC(=O)N2[C@H](c3ccc(Br)cc3)c3[nH]c4ccccc4c3C[C@H]2C1=O` [Compound 7p, (6R,12S)-2-(4-Amino-butyl)-6-(4-bromo-phenyl)-2,3,6,7,12,12a-hexahydro-pyrazino[1’,2’:1,6]pyrido[3,4-b]indole-1,4-dione], the IC50 on recombinant human PDE5 was determined as 3.5 µM.
In the case of `NCCCCN1CC(=O)N2[C@@H](c3ccc(Cl)cc3)c3[nH]c4ccccc4c3C[C@H]2C1=O` [Compound 6l, (6S,12S)-2-(4-Amino-butyl)-6-(4-chloro-phenyl)-2,3,6,7,12,12a-hexahydro-pyrazino[1’,2’:1,6]pyrido[3,4-b]indole-1,4-dione], the IC50 on recombinant human PDE5 was greater than 10 µM.
The compound `O=C1[C@H]2Cc3c([nH]c4ccccc34)[C@@H](c3ccc(Cl)cc3)N2C(=O)CN1CCO` [Compound 6a, (6R,12aR)6-(4-Chloro-phenyl)-2-(2-hydroxy-ethyl)-2,3,6,7,12,12a-hexahydro-pyrazino[1’,2’:1,6]pyrido[3,4-b]indole-1,4-dione] registered a melting point of 230 to 233 °C. Moreover, the IC50 at recombinant human PDE5 is greater than 10 µM.
On the same counts, the results for `NCCN1CC(=O)N2[C@H](c3ccc(Cl)cc3)c3[nH]c4ccccc4c3C[C@H]2C1=O` [Compound 6n, (6R,12aS)-2-(2-Amino-ethyl)-6-(4-chloro-phenyl)-2,3,6,7,12,12a-hexahydro-pyrazino[1’,2’:1,6]pyrido[3,4-b]indole-1,4-dione] are 200 to 204 °C and greater than 10 µM.
On the same counts, the results for `O=C1[C@@H]2Cc3c([nH]c4ccccc34)[C@@H](c3ccc(Cl)cc3)N2C(=O)CN1CCO` [Compound 6m, (6R,12aS)-6-(4-Chloro-phenyl)-2-(2-hydroxy-ethyl)-2,3,6,7,12,12a-hexahydro-pyrazino[1’,2’:1,6]pyrido[3,4-b]indole-1,4-dione] are 202 to 206 °C and greater than 10 µM.
With `O=C1[C@@H]2Cc3c([nH]c4ccccc34)[C@H](c3ccc(Br)cc3)N2C(=O)CN1CCO` [Compound 7i, (6S,12S)-6-(4-Bromo-phenyl)-2-(2-hydroxy-ethyl)-2,3,6,7,12,12a-hexahydro-pyrazino[1’,2’:1,6]pyrido[3,4-b]indole-1,4-dione], the IC50 at recombinant human PDE5 is greater than 10 µM.
The same measure, in the same setting: the same measure for `O=C1[C@H]2Cc3c([nH]c4ccccc34)[C@@H](c3ccc(Br)cc3)N2C(=O)CN1CCCCO` [Compound 7c, (6R,12R)-6-(4-Bromo-phenyl)-2-(4-hydroxy-butyl)-2,3,6,7,12,12a-hexahydropyrazino[1’,2’:1,6]pyrido[3,4-b]indole-1,4-dione]: 0.1 µM; for `NCCCCN1CC(=O)N2[C@@H](c3ccc(Br)cc3)c3[nH]c4ccccc4c3C[C@H]2C1=O` [Compound 7l, (6S,12S)-2-(4-Amino-butyl)-6-(4-bromo-phenyl)-2,3,6,7,12,12a-hexahydro-pyrazino[1’,2’:1,6]pyrido[3,4-b]indole-1,4-dione]: greater than 10 µM.
With `NCCN1CC(=O)N2[C@H](c3ccc(Br)cc3)c3[nH]c4ccccc4c3C[C@H]2C1=O` [Compound 7n, (6R,12S)-2-(2-Amino-ethyl)-6-(4-bromo-phenyl)-2,3,6,7,12,12a-hexahydro-pyrazino[1’,2’:1,6]pyrido[3,4-b]indole-1,4-dione], on recombinant human PDE5, the IC50 was 0.9 µM.
Same read-out and setting: the same measure for `O=C1[C@H]2Cc3c([nH]c4ccccc34)[C@@H](c3ccc(Br)cc3)N2C(=O)CN1CCO` [Compound 7a, (6R,12R)-6-(4-Bromo-phenyl)-2-(2-hydroxy-ethyl)-2,3,6,7,12,12a-hexahydro-pyrazino[1’,2’:1,6]pyrido[3,4-b]indole-1,4-dione]: 0.84 µM; for `NCCN1CC(=O)N2[C@H](c3ccc(Br)cc3)c3[nH]c4ccccc4c3C[C@@H]2C1=O` [Compound 7b, (6R,12R)-2-(2-Amino-ethyl)-6-(4-bromo-phenyl)-2,3,6,7,12,12a-hexahydro-pyrazino[1’,2’:1,6]pyrido[3,4-b]indole-1,4-dione]: 2.4 µM.
Consider `NCCCCN1CC(=O)N2[C@@H](c3ccc(Br)cc3)c3[nH]c4ccccc4c3C[C@@H]2C1=O` [Compound 7h, (6S,12R)-2-(4-Amino-butyl)-6-(4-bromo-phenyl)-2,3,6,7,12,12a-hexahydro-pyrazino[1’,2’:1,6]pyrido[3,4-b]indole-1,4-dione], for which the IC50 on recombinant human PDE5 is 3.2 µM.
On the same count and under the same terms, the same measure for `NCCN1CC(=O)N2[C@@H](c3ccc(Br)cc3)c3[nH]c4ccccc4c3C[C@@H]2C1=O` [Compound 7f, (6S,12R)-2-(2-Amino-ethyl)-6-(4-bromo-phenyl)-2,3,6,7,12,12a-hexahydro-pyrazino[1’,2’:1,6]pyrido[3,4-b]indole-1,4-dione]: greater than 10 µM; for `O=C1[C@H]2Cc3c([nH]c4ccccc34)[C@H](c3ccc(Br)cc3)N2C(=O)CN1CCCCO` [Compound 7g, (6S,12R)-6-(4-Bromo-phenyl)-2-(4-hydroxy-butyl)-2,3,6,7,12,12a-hexahydropyrazino[1’,2’:1,6]pyrido[3,4-b]indole-1,4-dione]: greater than 10 µM.
Consider `NCCCCN1CC(=O)N2[C@H](c3ccc(Cl)cc3)c3[nH]c4ccccc4c3C[C@@H]2C1=O` [Compound 6d, (6R,12R)-2-(4-Amino-butyl)-6-(4-chloro-phenyl)-2,3,6,7,12,12a-hexahydro-pyrazino[1’,2’:1,6]pyrido[3,4-b]indole-1,4-dione], for which, at recombinant human PDE5, the IC50 was greater than 10 µM.
